System: HCT-116 carcinoma cells
Experiment: Cell cycle assay (PI flow cytometry), HCT-116
Assay type: cell-based, human
Settings: 50 µg/mL, 48 h
Experimental: In the current study, the cell cycle distribution of the treated HCT-116 and LoVo carcinoma cells with compounds 3a and 3f was assessed by labeling the cell’s DNA with PI stain in order to determine if the induction of apoptosis in carcinoma cells could be related to the cell cycle arrest (Figure 8A–F). The intensity of the PI stain is proportional to the cell’s DNA content (Figure 9). […] The ability of the tested compounds (3a and 3f) to block the cell cycle progression in LoVo and HCT-116 cells confirmed their anticancer potential against these colon carcinoma cell lines and could explain the mechanism of the observed cytotoxicity.
Changes in cell cycle distribution induced by compounds 3a and 3f were analyzed using a flow cytometric analysis according to Nicoletti et al. 1991 [108] using a Propidium Iodide Flow Cytometry Kit for Cell Cycle Analysis (Abcam-UK). HCT-116 and LoVo carcinoma cells (5 × 10^4 cells/mL) were treated with DMSO as a negative control, and compounds 3a and 3f (50 µg/mL), for 48 h. After the centrifugation of the treated cells at 1800 rpm for 5 min, the pellet was washed twice with PBS. Then, the cells were fixed by mixing […] of 90% cold ethanol, and stained with propidium iodide (PI) for 1 h at 37 °C. […] The stained cells were analyzed for their DNA content using a BD FACSC flow cytometer.

Compound | Cells in G1 phase (%DIP G1) [%]
O=c1c2cc(Cl)ccc2[nH]c(=S)n1-c1cccc(C(F)(F)F)c1 [Compound 3a, 6-Chloro-2-thioxo-3-(3-trifluoromethyl-phenyl)-2,3-dihydro-1H-quinazolin-4-one] | 53.51
O=c1c2cc(Cl)ccc2[nH]c(=S)n1-c1ccc([N+](=O)[O-])cc1 [Compound 3f, 6-Chloro-3-(4-nitro-phenyl)-2-thioxo-2,3-dihydro-1H-quinazolin-4-one] | 57.81

Reference: PMC10610505, “Synthesis and Biological Evaluation of Some New 3-Aryl-2-thioxo-2,3-dihydroquinazolin-4(1H)-ones and 3-Aryl-2-(benzylthio)quinazolin-4(3H)-ones as Antioxidants; COX-2, LDHA, α-Glucosidase and α-Amylase Inhibitors; and Anti-Colon Carcinoma and Apoptosis-Inducing Agents” (Pharmaceuticals, 2023)
